The values below come from paper PMC6423038, “Deferiprone: Pan-selective Histone Lysine Demethylase Inhibition Activity and Structure Activity Relationship Study” (Scientific Reports, 2019).

One experiment concerns the target T1, KDM6A (UTX) (Homo sapiens, UniProt O15550).
T1 construct: purchased BPS Bioscience
The experiment is described as follows: KDM cell-free assay (AlphaScreen, BPS Bioscience). Format: biochemical. The following applies: for IC50: Fig. 9A, read-out: IC50 (KDM6A inhibition dose response curve).

Another experiment concerns MCF-7. The experiment is described as follows: Cell viability assay (MTS), antiproliferative activity. Format: cell-based. Conditions: Homo sapiens, MCF7, 72 h. How it is done: (§1) To preliminarily profile the bioactivity of these compounds, we adopted a streamlined approach which involved screening against KDM6A at two concentrations and evaluating antiproliferative activity against three representative cell lines – MCF-7 (ER(+) BCa), MDA-MB-231 (TNBC BCa) and Vero (a non-transformed cell line as control).
(§2) The In vitro proliferation assay was performed as reported previously[15],[16]. Detailed description of the protocol used is included in the Supplementary Information.
(§3) Cell Viability Assay. All cell lines were purchased form ATCC (Manassas, VA), and they were routinely cultured in different media recommended by the supplier. MCF-7 cells were cultured in non-phenol red DMEM (Corning, Manassas, VA) fortified with 10% charcoal treated fetal bovine serum (FBS; Atlanta Biologicals, GA) and 0.2 mM glutamine (Corning, Manassas, VA), whereas MDA-MB-231, DU-145, and Vero were cultured in DMEM with 10% FBS. […] After 24 h incubation in 37 °C under 5% CO2, cells were treated with serially diluted ligands with final DMSO concentration of 1% and incubated for additional 72 h. MTS (CellTiter 96 Aqueous One Solution Cell Proliferation Assays, Promega, Madison, WI) was added to each well 2.5 h prior to recording the absorbance at 490 nm.

Another experiment relates to VERO. The description is as above. It counts as cell-based. The following applies: Chlorocebus sabaeus, 72 h. How it is done: as §1, §2, §3
Another experiment relates to MDA-MB-231. The experiment is described as above. It counts as cell-based. Conditions: Homo sapiens, 72 h. Here is the method: as §1, §2, §3
Where [1] appears, read: Table 5, values calculated by linear regression.

What is called inhibition is the relative decrease from the control value, in per cent. Read a high inhibition as a strong effect. One may read the IC50 as the concentration at which inhibition is half-maximal.

T1 sequence (O15550 whole entry): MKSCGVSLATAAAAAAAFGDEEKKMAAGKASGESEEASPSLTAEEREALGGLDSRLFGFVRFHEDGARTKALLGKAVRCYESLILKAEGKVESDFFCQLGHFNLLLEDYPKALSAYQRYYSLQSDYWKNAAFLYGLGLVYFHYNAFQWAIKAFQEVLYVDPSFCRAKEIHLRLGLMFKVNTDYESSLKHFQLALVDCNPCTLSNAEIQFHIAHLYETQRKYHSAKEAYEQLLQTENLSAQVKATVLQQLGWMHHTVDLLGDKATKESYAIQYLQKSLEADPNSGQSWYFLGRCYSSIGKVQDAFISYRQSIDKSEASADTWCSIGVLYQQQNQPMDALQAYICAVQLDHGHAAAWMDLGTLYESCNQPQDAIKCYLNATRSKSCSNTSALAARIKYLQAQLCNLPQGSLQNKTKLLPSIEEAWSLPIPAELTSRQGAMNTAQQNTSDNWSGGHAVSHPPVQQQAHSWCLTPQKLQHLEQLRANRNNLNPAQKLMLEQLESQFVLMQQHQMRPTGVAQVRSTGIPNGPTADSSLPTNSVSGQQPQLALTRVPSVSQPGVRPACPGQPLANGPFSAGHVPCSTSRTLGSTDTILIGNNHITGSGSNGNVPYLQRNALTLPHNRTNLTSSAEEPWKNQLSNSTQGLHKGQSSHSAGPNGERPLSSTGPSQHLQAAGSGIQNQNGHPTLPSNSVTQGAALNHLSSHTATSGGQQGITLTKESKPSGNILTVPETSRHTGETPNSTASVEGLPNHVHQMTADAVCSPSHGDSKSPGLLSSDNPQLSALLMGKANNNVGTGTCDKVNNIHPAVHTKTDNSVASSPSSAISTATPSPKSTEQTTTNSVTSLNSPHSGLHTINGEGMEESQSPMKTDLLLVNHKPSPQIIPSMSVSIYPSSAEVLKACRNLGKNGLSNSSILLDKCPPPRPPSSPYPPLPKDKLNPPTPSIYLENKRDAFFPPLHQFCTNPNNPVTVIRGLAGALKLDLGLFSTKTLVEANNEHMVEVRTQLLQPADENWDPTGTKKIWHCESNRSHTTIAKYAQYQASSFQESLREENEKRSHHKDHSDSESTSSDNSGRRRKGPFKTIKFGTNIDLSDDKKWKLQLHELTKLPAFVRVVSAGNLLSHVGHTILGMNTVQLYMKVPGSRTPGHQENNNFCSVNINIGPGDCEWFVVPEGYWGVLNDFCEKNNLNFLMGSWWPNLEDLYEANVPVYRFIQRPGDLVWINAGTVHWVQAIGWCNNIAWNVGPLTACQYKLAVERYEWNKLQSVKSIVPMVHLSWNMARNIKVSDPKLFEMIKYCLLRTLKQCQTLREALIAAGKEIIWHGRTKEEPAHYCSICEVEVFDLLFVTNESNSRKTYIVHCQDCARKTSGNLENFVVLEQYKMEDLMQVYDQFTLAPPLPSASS

With `Cc1c(O)c(=O)ccn1CCCCCn1cc(-c2ccccc2)nn1` [1d], at 1 µM the inhibition against KDM6A (UTX) (Table 2) was 12%. For the same molecule, the inhibition at 10 µM against KDM6A (UTX) (Table 2) came to 100%. Moreover, the concentration for half-maximal inhibition (IC50) is 3.3 µM on KDM6A (UTX), more than 50 µM in the experiment with MCF-7 (Table 4), more than 50 µM in the experiment on VERO (Table 4) and 11.4 µM in the experiment on MDA-MB-231 (Table 4).
With `Cc1c(O)c(=O)ccn1CCCCCCn1cc(-c2ccccc2)nn1` [1e], at 1 µM the inhibition against KDM6A (UTX) (Table 2) was 12%. Also, the inhibition at 10 µM against KDM6A (UTX) (Table 2) worked out at 98%. Moreover, the IC50 was more than 50 µM in the experiment on MCF-7 (Table 4), more than 35 µM in the experiment on VERO (Table 4) and 12.5 µM with MDA-MB-231 (Table 4).
Molecule `Cc1ccccc1-c1cn(CCCCn2ccc(=O)c(O)c2C)nn1` [2a] returned an inhibition at 1 µM on KDM6A (UTX) (Table 2) of 6%. The molecule also yielded an inhibition at 10 µM on KDM6A (UTX) (Table 2) of 100%. In addition, the figures for the IC50 with MCF-7 (setting [1]), in the experiment with VERO (Table 5) and in the experiment on MDA-MB-231 (Table 5) were 42.5 µM, 11.6 µM and 16.4 µM, respectively.
`Cc1ccccc1-c1cn(CCCCCn2ccc(=O)c(O)c2C)nn1` [2b]: the half-maximal inhibitory concentration (IC50) was more than 50 µM with MCF-7 (Table 5), 5.8 µM in the experiment on VERO (Table 5) and 12.7 µM in the experiment with MDA-MB-231 (Table 5).
At KDM6A (UTX) (Table 2), `Cc1cccc(-c2cn(CCCCn3ccc(=O)c(O)c3C)nn2)c1` [2c] displayed an inhibition at 1 µM of 4%. The molecule further yielded an inhibition at 10 µM on KDM6A (UTX) (Table 2) of 100%. Moreover, the IC50 in the experiment on MCF-7 (setting [1]) is 62.7 µM; with VERO (Table 5) it was 5.2 µM; with MDA-MB-231 (Table 5), 10.9 µM.
`Cc1cccc(-c2cn(CCCCCn3ccc(=O)c(O)c3C)nn2)c1` [2d]: the IC50 in the experiment on MCF-7 (Table 5) was more than 50 µM; with VERO (Table 5), 3.6 µM; in the experiment on MDA-MB-231 (Table 5) it was 11.8 µM.
In the case of `Cc1ccc(-c2cn(CCCCn3ccc(=O)c(O)c3C)nn2)cc1` [2e], at KDM6A (UTX) (Table 2), at 1 µM the inhibition was 13%. At KDM6A (UTX) (Table 2), at 10 µM the inhibition was 100%. Besides, the IC50 was more than 50 µM in the experiment with MCF-7 (Table 5), 4.1 µM in the experiment with VERO (Table 5) and 7.4 µM with MDA-MB-231 (Table 5).
With `COc1ccccc1-c1cn(CCCCn2ccc(=O)c(O)c2C)nn1` [2g], the IC50 with MCF-7 (setting [1]) was 66.1 µM; in the experiment on VERO (Table 5), more than 50 µM; in the experiment with MDA-MB-231 (Table 5), 9.6 µM.
Consider `COc1ccccc1-c1cn(CCCCCn2ccc(=O)c(O)c2C)nn1` [2h], for which, on KDM6A (UTX) (Table 2), the inhibition at 1 µM was found to be 3%. For the same molecule, the inhibition at 10 µM against KDM6A (UTX) (Table 2) is 99%. Moreover, the IC50 in the experiment on MCF-7 (Table 5) is more than 50 µM; with VERO (Table 5), more than 50 µM; in the experiment on MDA-MB-231 (Table 5), 19.1 µM.
For `COc1cccc(-c2cn(CCCCn3ccc(=O)c(O)c3C)nn2)c1` [2i], the inhibition at 1 µM at KDM6A (UTX) (Table 2) is 7%. Moreover, on KDM6A (UTX) (Table 2), the inhibition at 10 µM is 100%. For the same molecule, the IC50 in the experiment with MCF-7 (setting [1]) was 54.8 µM; in the experiment with VERO (Table 5), more than 50 µM; in the experiment on MDA-MB-231 (Table 5), 7.5 µM.
For `COc1ccc(-c2cn(CCCCn3ccc(=O)c(O)c3C)nn2)cc1` [2k], the half-inhibitory concentration (IC50) in the experiment on MCF-7 (Table 5) is more than 50 µM; in the experiment on VERO (Table 5) it was more than 50 µM; with MDA-MB-231 (Table 5) it was 8.1 µM.
The molecule `COc1ccc(-c2cn(CCCCCn3ccc(=O)c(O)c3C)nn2)cc1` [2l] registered an inhibition at 1 µM against KDM6A (UTX) (Table 2) of 4%. This molecule also came in with an inhibition at 10 µM against KDM6A (UTX) (Table 2) of 100%. In addition, the half-maximal inhibitory concentration (IC50) in the experiment on MCF-7 (Table 5) is more than 50 µM; in the experiment with VERO (Table 5) it was more than 50 µM; in the experiment with MDA-MB-231 (Table 5), 9.6 µM.
On to `Cc1c(O)c(=O)ccn1CCCCCn1cc(-c2ccccc2F)nn1` [2m], for which at 1 µM the inhibition against KDM6A (UTX) (Table 2) was 16%. In addition, the inhibition at 10 µM at KDM6A (UTX) (Table 2) is 100%. The IC50 is more than 50 µM in the experiment on MCF-7 (Table 5), 12.7 µM with VERO (Table 5) and 18.3 µM in the experiment with MDA-MB-231 (Table 5).
The like results for `Cc1c(O)c(=O)ccn1CCCCCn1cc(-c2cccc(F)c2)nn1` [2n] were, in that order, 5%, 100%, more than 50 µM, 22.9 µM and 6.8 µM.
The like results for `Cc1c(O)c(=O)ccn1CCCCCn1cc(-c2ccc(F)cc2)nn1` [2o] were, in that order, 10%, 100%, more than 50 µM, 38.8 µM and 3.6 µM.
The like results for `Cc1c(O)c(=O)ccn1CCCCCn1cc(-c2ccccc2C(F)(F)F)nn1` [2p] were, in that order, 15%, 99%, more than 50 µM, 13.3 µM and 18.8 µM.
Regarding `Cc1c(O)c(=O)ccn1CCCCn1cc(-c2ccc(N(C)C)cc2)nn1` [2q], the results for the IC50 in the experiment on MCF-7 (Table 5), in the experiment on VERO (Table 5) and with MDA-MB-231 (Table 5) were more than 50 µM, more than 50 µM and 9.5 µM, respectively.
`Cc1c(O)c(=O)ccn1CCCCCn1cc(-c2ccc(N(C)C)cc2)nn1` [2r]: the half-maximal inhibitory concentration (IC50) is more than 50 µM in the experiment on MCF-7 (Table 5), more than 50 µM in the experiment on VERO (Table 5) and 12.5 µM in the experiment with MDA-MB-231 (Table 5).
As to `Cc1c(O)c(=O)ccn1CCCCCn1cc(-c2ccccn2)nn1` [2s], the inhibition at 1 µM against KDM6A (UTX) (Table 2) stood at 15%. This molecule also yielded an inhibition at 10 µM against KDM6A (UTX) (Table 2) of 99%. In addition, the half-inhibitory concentration (IC50) with MCF-7 (Table 5), in the experiment on VERO (Table 5) and in the experiment on MDA-MB-231 (Table 5) was more than 50 µM throughout.
In turn, `Cc1c(O)c(=O)ccn1CCCCCCn1cc(-c2ccc(-c3ccncc3)cc2)nn1` [2u] had an inhibition at 1 µM against KDM6A (UTX) (Table 2) of 15%. The inhibition at 10 µM at KDM6A (UTX) (Table 2) came out at 99%. The IC50 is 5.1 µM on KDM6A (UTX), more than 50 µM in the experiment on MCF-7 (Table 5), 66.9 µM in the experiment with VERO (Table 5) and 1.7 µM with MDA-MB-231 (Table 5).
On KDM6A (UTX) (Table 3), `Cc1c(O)c(=O)ccn1CCCCn1ccc(=O)c(O)c1C` [3a] registered an inhibition at 1 µM of 4%. The molecule further yielded an inhibition at 10 µM at KDM6A (UTX) (Table 3) of 100%. Also, the IC50 with MCF-7 (Table 6), in the experiment with VERO (Table 6) and in the experiment on MDA-MB-231 (Table 6) was more than 50 µM each time.
`Cc1c(O)c(=O)ccn1CCCCCn1ccc(=O)c(O)c1C` [3b]: testing at 1 µM on KDM6A (UTX) (Table 3) gave an inhibition of 1%. The molecule further yielded an inhibition at 10 µM on KDM6A (UTX) (Table 3) of 99%. Further, the IC50 with MCF-7 (Table 6), in the experiment on VERO (Table 6) and in the experiment on MDA-MB-231 (Table 6) was more than 50 µM throughout.
As for `Cc1c(O)c(=O)ccn1CCCCCCn1ccc(=O)c(O)c1C` [3c], the inhibition at 1 µM against KDM6A (UTX) (Table 3) came out at 2%. In addition, the inhibition at 10 µM against KDM6A (UTX) (Table 3) came out at 100%. For the same molecule, the half-maximal inhibitory concentration (IC50) with MCF-7 (Table 6), in the experiment with VERO (Table 6) and with MDA-MB-231 (Table 6) was more than 50 µM each time.
For the molecule `Cc1c(O)c(=O)ccn1CCCCCCCn1ccc(=O)c(O)c1C` [3d], at 1 µM the inhibition against KDM6A (UTX) (Table 3) was 3%. In addition, on KDM6A (UTX) (Table 3), the inhibition at 10 µM was found to be 100%. Besides, the concentration for half-maximal inhibition (IC50) in the experiment on MCF-7 (Table 6), in the experiment on VERO (Table 6) and in the experiment with MDA-MB-231 (Table 6) was more than 50 µM throughout.
On KDM6A (UTX) (Table 3), `Cc1c(O)c(=O)ccn1[C@H]1CC[C@H](n2ccc(=O)c(O)c2C)CC1` [3e] displayed an inhibition at 1 µM of 5%. 10 µM produced 100% inhibition against KDM6A (UTX) (Table 3). Besides, the values for the IC50 with MCF-7 (Table 6), with VERO (Table 6) and in the experiment on MDA-MB-231 (Table 6) were more than 50 µM, more than 50 µM and 36.9 µM, respectively.
`Cc1c(O)c(=O)ccn1Cc1ccc(Cn2ccc(=O)c(O)c2C)cc1` [3f] came in with an inhibition at 1 µM against KDM6A (UTX) (Table 3) of 5%. This molecule gave an inhibition at 10 µM against KDM6A (UTX) (Table 3) of 100%. For the same molecule, the concentration for half-maximal inhibition (IC50) in the experiment with MCF-7 (Table 6, values calculated by linear regression) is 378 µM; with VERO (Table 6), more than 50 µM; in the experiment with MDA-MB-231 (Table 6) it was 25 µM.
